One assay concerns the target T1, bovine factor Xa (Bos taurus, UniProt P00743).
T1 construct: bovine factor Xa, Chromogenix, 2 nkat/mL; purchased Chromogenix
The assay can be described thus: Protease inhibitory assay, chromogenic substrate S-2222. The assay is classed as biochemical. To be noted: for experimental hit status, Factor Xa: 1 = hit, 0 = no hit, screening at 200 µM.

The target of a further assay is T2, human thrombin (Homo sapiens, UniProt P00734).
T2 construct: human thrombin; purchased Sigma-Aldrich
The assay can be described thus: Protease inhibitory assay, chromogenic substrate S-2238. Conditions: for experimental hit status, Thrombin: 1 = hit, 0 = no hit, screening at 200 µM. It counts as biochemical.

The target in the next assay is T3, human 5-HT1A receptor (Homo sapiens, UniProt P08908).
T3 construct: expressed in transfected cells
T3 sequence (P08908 1-422): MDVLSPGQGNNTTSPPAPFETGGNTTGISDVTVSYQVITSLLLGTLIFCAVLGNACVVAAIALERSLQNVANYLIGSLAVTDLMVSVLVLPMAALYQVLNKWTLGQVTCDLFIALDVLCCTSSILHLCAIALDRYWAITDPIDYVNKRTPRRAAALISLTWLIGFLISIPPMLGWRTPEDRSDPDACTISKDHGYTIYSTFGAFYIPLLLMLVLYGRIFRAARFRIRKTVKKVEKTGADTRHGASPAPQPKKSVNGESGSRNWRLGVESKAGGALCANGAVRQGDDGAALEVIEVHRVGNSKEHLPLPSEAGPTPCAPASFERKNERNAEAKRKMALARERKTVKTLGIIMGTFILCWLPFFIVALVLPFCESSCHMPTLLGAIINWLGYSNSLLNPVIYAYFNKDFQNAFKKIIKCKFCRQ
The assay can be described thus: GPCR radioligand binding assay, [3H]-8-OH-DPAT displacement, HEK293 membranes. Conditions: for experimental hit status, 5-HT1: 1 = hit, 0 = no hit, tested at 10 µM, hit = 50% or stronger inhibition.

The target in another assay is T4, human 5-HT7b receptor (Homo sapiens, UniProt P34969).
T4 construct: expressed in transfected cells
In words: GPCR radioligand binding assay, [3H]-5-CT displacement, HEK293 membranes. Conditions: for experimental hit status, 5-HT7: 1 = hit, 0 = no hit, tested at 10 µM, hit = 50% or stronger inhibition.

The target in another assay is T5, human 5-HT6 receptor (Homo sapiens, UniProt P50406).
T5 construct: expressed in transfected cells
The assay can be described thus: GPCR radioligand binding assay, [3H]-LSD displacement, HEK293 membranes. To be noted: for experimental hit status, 5-HT6: 1 = hit, 0 = no hit, tested at 10 µM, hit = 50% or stronger inhibition.

The next assay addresses T6, recombinant SETD2 (Homo sapiens, UniProt Q9BYW2).
T6 construct: purchased BPS Bioscience 52060
T6 sequence (Q9BYW2 1418-1714 limits assumed): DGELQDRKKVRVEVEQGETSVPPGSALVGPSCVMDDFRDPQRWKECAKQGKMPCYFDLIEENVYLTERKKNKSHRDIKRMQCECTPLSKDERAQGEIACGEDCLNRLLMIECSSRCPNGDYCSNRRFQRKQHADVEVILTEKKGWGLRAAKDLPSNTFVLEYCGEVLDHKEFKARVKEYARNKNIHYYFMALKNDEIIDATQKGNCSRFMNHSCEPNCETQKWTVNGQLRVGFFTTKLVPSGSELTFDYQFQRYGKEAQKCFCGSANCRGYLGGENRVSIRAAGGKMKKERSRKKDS
The assay can be described thus: SETD2 Chemiluminescence assay (H3K36 tri-methylation). It counts as biochemical. Conditions: 1 = hit, 0 = no hit.

[1] abbreviates: 10 µM, read-out: 5-HT1A % Inhibition by plate position.
The mark [2] stands for this setting: 5-HT1A, average of exp_1 and exp_2, read-out: %inh 5-HT1A average.
Where [3] appears, read: 5-HT1A, average, values below 0 and above 100% were set as 0 and 100, read-out: %inh 5-HT1A corrected*.
Setting [4] is: 5-HT1A, replicate exp_1, read-out: %inh 5-HT1A exp_1.
[5] abbreviates: 5-HT1A, replicate exp_2, read-out: %inh 5-HT1A exp_2.
Setting [6] is: 10 µM, read-out: 5-HT7 % Inhibition by plate position.
Where [7] appears, read: 5-HT7, average of exp_1 and exp_2, read-out: %inh 5-HT7 average.
[8] abbreviates: 5-HT7, average, values below 0 and above 100% were set as 0 and 100, read-out: %inh 5-HT7 corrected*.
Where [9] appears, read: 5-HT7, replicate exp_1, read-out: %inh 5-HT7 exp_1.
[10] abbreviates: 5-HT7, replicate exp_2, read-out: %inh 5-HT7 exp_2.
Where [11] appears, read: 10 µM, read-out: 5-HT6 % Inhibition by plate position.
The mark [12] stands for this setting: 5-HT6, average of exp_1 and exp_2, read-out: %inh 5-HT6 average.
The mark [13] stands for this setting: 5-HT6, average, values below 0 and above 100% were set as 0 and 100, read-out: %inh 5-HT6 corrected*.
The mark [14] stands for this setting: 5-HT6, replicate exp_1, read-out: %inh 5-HT6 exp_1.
Setting [15] is: 5-HT6, replicate exp_2, read-out: %inh 5-HT6 exp_2.

The values that follow come from paper PMC8159961, “Exploring protein hotspots by optimized fragment pharmacophores” (Nature Communications, 2021).

Where two headings read alike, the source gives them in different places.

T1 sequence (P00743 234-492 limits assumed): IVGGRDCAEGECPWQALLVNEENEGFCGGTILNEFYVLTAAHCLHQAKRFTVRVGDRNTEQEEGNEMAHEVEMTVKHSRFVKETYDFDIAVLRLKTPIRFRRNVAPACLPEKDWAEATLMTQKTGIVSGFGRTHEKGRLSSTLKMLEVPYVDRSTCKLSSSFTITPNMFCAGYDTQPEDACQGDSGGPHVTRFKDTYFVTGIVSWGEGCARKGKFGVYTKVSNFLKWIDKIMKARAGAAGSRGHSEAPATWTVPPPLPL
T1 sequence (P00743 41-180 partner limits assumed): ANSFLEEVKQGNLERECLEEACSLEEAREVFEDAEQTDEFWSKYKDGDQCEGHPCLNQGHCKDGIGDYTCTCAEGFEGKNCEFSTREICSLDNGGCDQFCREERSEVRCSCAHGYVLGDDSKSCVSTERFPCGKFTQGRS
T5 sequence (P50406 whole entry): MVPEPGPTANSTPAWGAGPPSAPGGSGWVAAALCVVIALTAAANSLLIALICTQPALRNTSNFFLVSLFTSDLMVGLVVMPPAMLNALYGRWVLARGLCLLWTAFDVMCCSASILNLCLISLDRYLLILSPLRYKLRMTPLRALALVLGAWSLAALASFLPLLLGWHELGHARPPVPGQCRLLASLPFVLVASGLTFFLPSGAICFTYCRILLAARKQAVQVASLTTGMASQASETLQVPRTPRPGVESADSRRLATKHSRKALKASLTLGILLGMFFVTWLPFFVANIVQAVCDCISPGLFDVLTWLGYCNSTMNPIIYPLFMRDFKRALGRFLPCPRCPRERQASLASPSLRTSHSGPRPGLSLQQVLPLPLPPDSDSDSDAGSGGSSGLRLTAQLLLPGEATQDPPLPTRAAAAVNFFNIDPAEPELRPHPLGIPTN
T4 sequence (P34969 1-432): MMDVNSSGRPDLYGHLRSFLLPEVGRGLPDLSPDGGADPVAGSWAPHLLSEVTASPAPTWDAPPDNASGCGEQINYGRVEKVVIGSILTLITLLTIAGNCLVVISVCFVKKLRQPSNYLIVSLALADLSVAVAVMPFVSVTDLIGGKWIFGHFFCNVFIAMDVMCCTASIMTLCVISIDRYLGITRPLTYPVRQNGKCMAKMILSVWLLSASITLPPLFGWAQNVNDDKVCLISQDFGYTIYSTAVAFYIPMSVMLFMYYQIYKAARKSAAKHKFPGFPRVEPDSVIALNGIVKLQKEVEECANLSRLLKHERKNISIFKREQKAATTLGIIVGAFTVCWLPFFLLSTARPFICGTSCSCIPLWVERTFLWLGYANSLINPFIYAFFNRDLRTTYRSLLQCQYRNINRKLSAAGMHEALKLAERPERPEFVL

`c1cnc2cccnc2c1` [SX002]: at bovine factor Xa, the “experimental hit status, Factor Xa” value is 0. Besides, the “experimental hit status, Thrombin” value on human thrombin came out at 1. Besides, the Ki at human thrombin (plate layout, label = plate position, Cheng-Prusoff, Km 2.6 µM, read-out: Thrombin Ki) was 163 µM. The inhibition at 10 µM was 0% at human 5-HT1A receptor (setting [1]); -0.719% on human 5-HT1A receptor (setting [2]); 0% at human 5-HT1A receptor (setting [3]); -9% on human 5-HT1A receptor (setting [4]); 8% at human 5-HT1A receptor (setting [5]); 35% on human 5-HT7b receptor (setting [6]). In addition, the inhibition at 10 µM at human 5-HT7b receptor (setting [7]) came out at 35%; at human 5-HT7b receptor (setting [8]) it was 35%; at human 5-HT7b receptor (setting [9]), 39%; on human 5-HT7b receptor (setting [10]), 31%; on human 5-HT6 receptor (setting [11]), 24%; at human 5-HT6 receptor (setting [12]), 24%. Moreover, the inhibition at 10 µM was 24% on human 5-HT6 receptor (setting [13]), 27% at human 5-HT6 receptor (setting [14]) and 21% on human 5-HT6 receptor (setting [15]). The “experimental hit status, 5-HT1” value at human 5-HT1A receptor worked out at 0. Besides, the “experimental hit status, 5-HT7” value at human 5-HT7b receptor stood at 0. At human 5-HT6 receptor, the “experimental hit status, 5-HT6” value is 0. In addition, the “experimental hit status, SETD2” value at recombinant SETD2 came out at 0.
On to `Cc1cc2ccccc2nc1N` [SX001], for which the Ki at bovine factor Xa was determined as 149 µM. Besides, the “experimental hit status, Factor Xa” value at bovine factor Xa was found to be 1. Also, at human thrombin, the “experimental hit status, Thrombin” value was determined as 0. Also, the inhibition at 10 µM at human 5-HT1A receptor (setting [1]) is 0%; on human 5-HT1A receptor (setting [2]), -13%; on human 5-HT1A receptor (setting [3]), 0%; at human 5-HT1A receptor (setting [4]) it was -0.697%; at human 5-HT1A receptor (setting [5]), -25%; at human 5-HT7b receptor (setting [6]), 1.66%. The inhibition at 10 µM at human 5-HT7b receptor (setting [7]) is 1.66%; at human 5-HT7b receptor (setting [8]), 1.66%; at human 5-HT7b receptor (setting [9]), 7%; at human 5-HT7b receptor (setting [10]) it was -3.75%; at human 5-HT6 receptor (setting [11]) it was 33%; on human 5-HT6 receptor (setting [12]), 33%. The inhibition at 10 µM on human 5-HT6 receptor (setting [13]) came to 33%; on human 5-HT6 receptor (setting [14]), 29%; at human 5-HT6 receptor (setting [15]), 37%. For the same compound, the “experimental hit status, 5-HT1” value on human 5-HT1A receptor is on record as 0. Besides, the “experimental hit status, 5-HT7” value at human 5-HT7b receptor came out at 0. For the same compound, at human 5-HT6 receptor, the “experimental hit status, 5-HT6” value is recorded as 0. Moreover, the “experimental hit status, SETD2” value on recombinant SETD2 turned out to be 0.

By Ki is commonly meant the dissociation constant of the complex between target and ligand, obtained from inhibition or displacement.
